Reference: patent publication US20170319532A1, “METHODS AND FORMULATIONS FOR TREATMENT AND/OR PREVENTION OF BLOOD-ASSOCIATED DISORDERS” (TWi Biotechnology, Inc., priority 2016, published 2017)

Test system: hemophilic arthropathy rat model (knee joint swelling)
Assay: Joint swelling in rat hemophilic arthropathy model induced by intraarticular injection of whole blood
Assay type: in vivo, female Lewis rats
Conditions: for % change of joint swelling: left vs right knee oval area, p<0.05
Protocol: A total of 8 female Lewis rats were used for hemophilia arthropathy (HA) study. The animals were specific pathogen free and approximately 6 to 7 weeks old upon start dosing.
Animals were randomized into 2 groups on Day 1 and started to receive diacerein or vehicle treatments throughout the study of 10 days. On Day 4 and Day 8, treatment was performed 1 hour before HA model induction. For HA induction, under anesthesia with 1.5-5% isoflurane (inhalation anesthesia machine, Matrix vip 3000 isoflurane), blood was collected from orbital sinus of each rat and immediately, 0.1 ml of whole blood was intraarticular injected into the cavity of left knee using syringe with 27G needle. The blood was anti-coagulated with EDTA-2K. Body weight and joint swelling measurement were assessed 4 hours post-dosing every day.
The longitudinal and transverse axes of both knee joints were measured with calipers on Day 1 (pre-dose), Day 4 (pre-dose), and Day 4-10 (4 hours post-dose). The oval area of knee joints and % change of joint swelling was calculated using the following formula:
Oval area=longitudinal axis×transverse axis×3.14×0.25% change of joint swelling=(Oval area left−Oval area right)/Oval area right×100%

CC(=O)Oc1cccc2c1C(=O)c1c(OC(C)=O)cc(C(=O)O)cc1C2=O [diacerein, 4,5-bis (acetyloxy) 9,10-dihydro-4,5-dihydroxy-9,10-dioxo-2-anthracenecarboxylic acid]
% change of joint swelling (Day 8, the second hemophilia arthropathy induction, vehicle 22.57±3.77%): 10.02±3.54% | % change of joint swelling (Day 10, end of the study, vehicle 13.51±4.78%): 0.50±3.28% | joint swelling (qualitative) (hemophilic arthropathy rat model, compared with vehicle): suppressed joint swelling
